# In patent US10351540B2, “1,2-dithiolane and dithiol compounds useful in treating mutant EGFR-mediated diseases and conditions” (Sabila Biosciences LLC, priority 2017, dated 2019):
# Target: T1, EGFR T790M (Homo sapiens, UniProt P00533, T790M)
# T1 construct: made in house; host or cells: T7 phage in E. coli (BL21-derived) or HEK-293 cells
# Test: KINOMEscan competition binding kinase assay, Kd (Method B)
# Conditions: Method B (Kd values)
# Description: The assay is performed by combining three components: DNA-tagged kinase; immobilized ligand; and a test compound. The ability of the test compound to compete with the immobilized ligand is measured via quantitative PCR of the DNA tag.
# For most assays, kinase-tagged T7 phage strains were prepared in an E. coli host derived from the BL21 strain. E. coli were grown to log-phase and infected with T7 phage and incubated with shaking at 32° C. until lysis. The lysates were centrifuged and filtered to remove cell debris. The remaining kinases were produced in HEK-293 cells and subsequently tagged with DNA for qPCR detection. Streptavidin-coated magnetic beads were treated with biotinylated small molecule ligands for 30 minutes at room temperature to generate affinity resins for kinase assays. The liganded beads were blocked with excess biotin and washed with blocking buffer (SeaBlock (Pierce), 1% BSA, 0.05% Tween 20, 1 mM DTT) to remove unbound ligand and to reduce non-specific binding. […] All reactions were performed in polystyrene 96-well plates in a final volume of 0.135 ml. […] The kinase concentration in the eluates was measured by qPCR.
# T1 sequence (P00533 25-1210 T790M): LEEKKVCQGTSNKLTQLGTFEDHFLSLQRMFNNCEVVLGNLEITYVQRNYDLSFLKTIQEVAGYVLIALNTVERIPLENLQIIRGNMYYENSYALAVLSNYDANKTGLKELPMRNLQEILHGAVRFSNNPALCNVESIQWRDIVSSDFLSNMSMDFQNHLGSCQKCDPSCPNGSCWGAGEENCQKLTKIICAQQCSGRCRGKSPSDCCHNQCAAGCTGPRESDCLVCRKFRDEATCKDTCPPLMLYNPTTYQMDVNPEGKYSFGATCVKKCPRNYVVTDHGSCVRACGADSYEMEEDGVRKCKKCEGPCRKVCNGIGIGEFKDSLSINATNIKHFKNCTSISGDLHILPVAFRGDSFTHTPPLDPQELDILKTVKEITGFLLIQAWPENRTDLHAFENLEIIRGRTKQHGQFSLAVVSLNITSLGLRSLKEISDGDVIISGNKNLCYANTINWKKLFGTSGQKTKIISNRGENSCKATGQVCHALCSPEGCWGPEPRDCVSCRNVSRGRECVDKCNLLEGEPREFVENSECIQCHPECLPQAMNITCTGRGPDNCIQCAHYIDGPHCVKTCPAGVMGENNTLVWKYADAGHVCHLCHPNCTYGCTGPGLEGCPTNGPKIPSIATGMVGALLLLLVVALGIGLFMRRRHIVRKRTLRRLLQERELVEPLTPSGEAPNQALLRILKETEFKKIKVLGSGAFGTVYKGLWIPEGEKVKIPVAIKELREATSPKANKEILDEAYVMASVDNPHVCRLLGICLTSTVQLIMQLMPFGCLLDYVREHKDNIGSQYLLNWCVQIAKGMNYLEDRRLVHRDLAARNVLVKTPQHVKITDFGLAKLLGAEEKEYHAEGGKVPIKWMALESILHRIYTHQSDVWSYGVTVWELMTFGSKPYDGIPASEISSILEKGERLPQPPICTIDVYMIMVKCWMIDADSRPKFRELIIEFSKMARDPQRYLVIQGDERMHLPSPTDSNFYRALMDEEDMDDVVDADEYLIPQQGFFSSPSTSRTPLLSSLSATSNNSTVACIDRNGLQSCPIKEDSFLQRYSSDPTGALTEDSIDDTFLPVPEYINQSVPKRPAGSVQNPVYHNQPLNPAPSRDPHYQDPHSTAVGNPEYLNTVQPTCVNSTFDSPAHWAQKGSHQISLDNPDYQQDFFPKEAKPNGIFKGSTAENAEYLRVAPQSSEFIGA
row,Kd,SMILES
1,100 to 999 nM,"COc1cc(N2CCN(C)CC2)ccc1Nc1ncc(Cl)c(Nc2cccc(NC(=O)C(CSC(C)=O)CSC(C)=O)c2)n1 [Example 40, S,S′-(2-((3-((5-chloro-2-((2-methoxy-4-(4-methylpiperazin-1-yl)phenyl)amino)pyrimidin-4-yl)amino)phenyl)carbamoyl)propane-1,3-diyl)diethanethioate]"
2,> 10000 nM,"COc1cc(N2CCN(C)CC2)ccc1Nc1ncc(Cl)c(Oc2cccc(NC(=O)C(CSC(C)=O)CSC(C)=O)c2)n1 [Example 35, S,S′-(2-((3-((5-chloro-2-((2-methoxy-4-(4-methylpiperazin-1-yl)phenyl)amino)pyrimidin-4-yl)oxy)phenyl)carbamoyl)propane-1,3-diyl)diethanethioate]"
3,1 to 99 nM,"COc1cc(N2CCN(C)CC2)ccc1Nc1ncc(Cl)c(Nc2cccc(NC(=O)C3CSSC3)c2)n1 [Example 41, N-(3-((5-chloro-2-((2-methoxy-4-(4-methylpiperazin-1-yl)phenyl)amino)pyrimidin-4-yl)amino)phenyl)-1,2-dithiolane-4-carboxamide]"
4,100 to 999 nM,"COc1cc(N(C)CCN(C)C)c(NC(=O)C2CSSC2)cc1Nc1nccc(-c2cn(C)c3ccccc23)n1 [Example 29, N-(2-((2-(dimethylamino)ethyl)(methyl)amino)-4-methoxy-5-((4-(1-methyl-1H-indol-3-yl)pyrimidin-2-yl)amino)phenyl)-1,2-dithiolane-4-carboxamide]"
5,100 to 999 nM,"COc1cc(N(C)CCN(C)C)c(NC(=O)C(CSC(C)=O)CSC(C)=O)cc1Nc1nccc(-c2cn(C)c3ccccc23)n1 [Example 28, S,S′-(2-((2-((2-(dimethylamino)ethyl)(methyl)amino)-4-methoxy-5-((4-(1-methyl-1H-indol-3-yl)pyrimidin-2-yl)amino)phenyl)carbamoyl)propane-1,3-diyl)diethanethioate]"
6,1000 to 10000 nM,"COc1cc(N2CCN(C)CC2)ccc1Nc1ncc(Cl)c(Oc2cccc(NC(=O)C3CSSC3)c2)n1 [Example 36, N-(3-((5-chloro-2-((2-methoxy-4-(4-methylpiperazin-1-yl)phenyl)amino)pyrimidin-4-yl)oxy)phenyl)-1,2-dithiolane-4-carboxamide]"

# Target: T2, EGFR (L858R) (Homo sapiens, UniProt P00533, L858R)
# T2 construct: made in house; host or cells: cell-free translation in rabbit reticulocyte lysate
# T2 sequence (P00533 25-1210 L858R): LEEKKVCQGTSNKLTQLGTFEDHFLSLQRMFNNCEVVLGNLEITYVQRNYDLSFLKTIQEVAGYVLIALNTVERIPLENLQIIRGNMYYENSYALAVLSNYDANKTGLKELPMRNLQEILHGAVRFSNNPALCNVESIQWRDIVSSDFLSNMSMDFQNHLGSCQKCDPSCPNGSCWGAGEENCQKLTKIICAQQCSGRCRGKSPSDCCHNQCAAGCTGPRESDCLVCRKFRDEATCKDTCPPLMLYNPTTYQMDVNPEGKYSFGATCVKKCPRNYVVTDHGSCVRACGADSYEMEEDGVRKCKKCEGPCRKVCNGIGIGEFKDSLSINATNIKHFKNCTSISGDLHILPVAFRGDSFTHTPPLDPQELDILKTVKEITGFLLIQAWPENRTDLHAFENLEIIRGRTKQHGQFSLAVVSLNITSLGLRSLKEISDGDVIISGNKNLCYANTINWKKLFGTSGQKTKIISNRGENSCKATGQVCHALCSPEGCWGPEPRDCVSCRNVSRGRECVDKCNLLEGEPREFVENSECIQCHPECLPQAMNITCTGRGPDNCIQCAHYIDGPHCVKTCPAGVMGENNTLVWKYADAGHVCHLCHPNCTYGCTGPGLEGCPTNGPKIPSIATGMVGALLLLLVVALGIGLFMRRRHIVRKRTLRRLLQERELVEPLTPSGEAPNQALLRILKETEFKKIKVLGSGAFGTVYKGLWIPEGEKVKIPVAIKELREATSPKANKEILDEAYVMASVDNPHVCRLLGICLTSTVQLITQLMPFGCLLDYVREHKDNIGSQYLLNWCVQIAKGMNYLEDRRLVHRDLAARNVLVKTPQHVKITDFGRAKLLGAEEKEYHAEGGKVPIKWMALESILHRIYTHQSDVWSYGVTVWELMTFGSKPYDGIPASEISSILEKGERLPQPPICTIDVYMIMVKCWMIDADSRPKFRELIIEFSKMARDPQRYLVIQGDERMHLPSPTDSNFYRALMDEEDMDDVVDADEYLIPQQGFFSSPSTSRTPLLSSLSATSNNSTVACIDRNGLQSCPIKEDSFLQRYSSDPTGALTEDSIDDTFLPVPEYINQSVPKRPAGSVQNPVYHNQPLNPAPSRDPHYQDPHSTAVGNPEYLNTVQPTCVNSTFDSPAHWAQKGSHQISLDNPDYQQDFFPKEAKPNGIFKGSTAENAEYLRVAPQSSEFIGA
# Test: KinaseSeeker competition binding assay, rabbit reticulocyte lysate (Method A)
# Conditions: 7-point curve, duplicate
# Description: Method A: Rabbit Reticulocyte Lysate Assay Design: KinaseSeeker is a homogeneous competition binding assay where the displacement of an active site dependent probe by an inhibitor is measured by a change in luminescence signal. Luminescence readout translates into a highly sensitive and robust assay with low background and minimal interference from test compounds.
# 10 mM stock solutions of test compounds were serially diluted in DMSO to make assay stocks. Prior to initiating IC50 determinations, the test compounds were evaluated for false positive against split-luciferase.
# Each test compound was screened in duplicate against target kinase i.e. EGFR (L858R) at 7 different concentrations. For kinase assays, Cfluc-kinase was translated along with Fos-Nfluc using a cell-free system (rabbit reticulocyte lysate) at 30° C. for 90 min. […] 80 uL of luciferin assay reagent was added to each solution and luminescence was immediately measured on a luminometer.
# The % Inhibition and % Activity Remaining was calculated using the following equation: % Inhibition=[(ALUControl=ALUSample)/ALUControl]×100 % Activity Remaining=100−% Inhibition
# The % Activity was plotted against compound concentration and the IC50 was determined for each compound using a 7-point curve (Jester, B. W.; et. al. J. Am. Chem. Soc. 2010, 132, 11727-11735. Jester, B. W.; et. al. J. Med. Chem. 2012, 55, 1526-1537). […]
row,IC50,SMILES
1,1000 to 10000 nM,CCOc1ncnc(Nc2ccc(OCc3cccc(F)c3)c(Cl)c2)c1NC(=O)CC1CCSS1 (centres unmarked) [Example 20]
2,> 10000 nM,"O=C(C[C@@H]1CCSS1)Nc1c(Nc2ccc(OCc3cccc(F)c3)c(Cl)c2)ncnc1OC[C@H](O)CO [Example 24, N-(4-((3-chloro-4-((3-fluorobenzyl)oxy)phenyl)amino)-6-((R)-2,3-dihydroxypropoxy)pyrimidin-5-yl)-2-((R)-1,2-dithiolan-3-yl)acetamide]"
